# Reference: patent US20120122820A1, “PRODRUGS AND THE USE THEREOF” (Bayer Schering Pharma Aktiengesellschaft, priority 2007, published 2012)
# Structures can show the parent of a compound that is named as a salt.
# Tests used:
# [1] = Stability in buffer at various pH values; format: physicochemical
# Description: 0.3 mg of the test substance is weighed into a 2 ml HPLC vial and 0.5 ml of acetonitrile or acetonitrile/DMSO (9:1) is added. The substance is dissolved by putting the sample vessel in an ultrasonic bath for about 10 seconds. Then 0.5 ml of the respective (buffer) solution is added, and the sample is again treated in the ultrasonic bath.
# • pH 4: 1 liter of Millipore water is adjusted to pH 4.0 with 1 N hydrochloric acid; • pH 5: 0.096 mol of citric acid and 0.2 mol of sodium hydroxide ad 1 liter of water; • pH 7.4: 90.0 g of sodium chloride, 13.61 g of potassium dihydrogen phosphate and 83.35 g of 1 N sodium hydroxide solution are made up to 1 liter with water; this solution is then further diluted 1:10 with Millipore water. • pH 8: 0.013 mol of borax and 0.021 mol of hydrochloric acid ad 1 liter of water.
# 5 μl portions of the sample solution are analyzed by HPLC for their content of unchanged test substance, and of parent substance (A) produced, every hour over a period of 24 hours at 37° C. The percentage areas of the appropriate peaks are used for quantification.
# HPLC method for Examples 1-21:
# Agilent 1100 with DAD (G1314A), binary pump (G1312A), autosampler (G1329A), column oven (G1316A), thermostat (G1330A); column: Kromasil 100 C18, 60 mm×2.1 mm, 3.5 μm; column temperature: 30° C.; eluent A: water+5 ml of perchloric acid/liter, eluent B: acetonitrile; gradient: 0-1.0 min 98% A, 2% B; 1.0-9.0 min 2% A, 98% B; 9.0-13.0 min 2% A, 98% B; 13.0-13.5 min 98% A, 2% B; 13.5-15.0 min 98% A, 2% B; flow rate: 0.75 ml/min; UV detection: 210 nm.
# HPLC method for Examples 22-40:
# The ratios of the peak areas (F) at the respective time points in relation to the peak areas at the starting time are shown in Table 3 for representative exemplary embodiments: […]
# [2] = i.v. pharmacokinetics in Wistar rats; format: in vivo; settings: after i.v. bolus administration, male Wistar rats
# Description: (§1) On the day before administration of the substance, a catheter for obtaining blood is implanted in the jugular vein of the experimental animals (male Wistar rats, body weight 200-250 g) under Isofluran® anesthesia.
# (§2) On the day of the experiment, a defined dose of the test substance is administered as solution into the tail vein using a Hamilton® glass syringe (bolus administration, duration of administration <10 s). Blood samples (8-12 time points) are taken through the catheter sequentially over the course of 24 h after administration of the substance. Plasma is obtained by centrifuging the samples in heparinized tubes. Acetonitrile is added to a defined plasma volume per time point to precipitate proteins. After centrifugation, test substance and, where appropriate, known cleavage products of the test substance in the supernatant are determined quantitatively using a suitable LC/MS-MS method.
# The measured plasma concentrations are used to calculate pharmacokinetic parameters of the test substance and of the active ingredient compound (A) liberated therefrom, such as AUC, Cmax, T1/2 (half-life) and CL (clearance).
# [3] = test system: heart rate of anesthetized rats; assay: Influence on the heart rate of anesthetized rats; format: in vivo; settings: maximum decrease in the first 30 min after i.v. bolus of 100 μg/kg of (A) or equivalent dosages; anesthetized male Wistar rats
# Description: Male Wistar rats with a body weight above 250 g are employed. In the night before the experiment, the animals receive no feed but still have free access to drinking water. Preparation and investigations are carried out under Trapanal® anesthesia (100 mg/kg i.p.). Injection and infusion take place through a catheter in the jugular vein, and the blood pressure is recorded via a catheter in the femoral artery (transducer: Braun, Melsungen). After the preparation, the animals are connected to a continuous infusion of physiological saline solution to compensate fluid losses. Test substance or placebo solution are administered intravenously as bolus after an equilibration time of about 1 h. Heart rate and arterial blood pressure are recorded during the equilibration and over a period of at least 30 min after the bolus injection with the aid of a digital evaluation program.
# Table 5 lists the maximum heart rate decrease in the first 30 min after an i.v. bolus of 100 μg/kg of the active substance (A) or of equivalent dosages of representative exemplary embodiments: […]
# [4] = Oral pharmacokinetics in Wistar rats; format: in vivo; settings: after oral administration (gavage), male Wistar rats
# Description: as §1
# as §2, with “stomach by gavage.” for “tail vein using a Hamilton® glass syringe (bolus administration, duration of administration <10 s).”
# The measured plasma concentrations are used to calculate pharmacokinetic parameters of the test substance and of the active ingredient compound (A) liberated therefrom, such as AUC, Cmax, T1/2 (half-life).
# [5] = Determination of the solubility (24 h shaking at room temperature, ultracentrifugation, HPLC); format: physicochemical; settings: thermodynamic from solid
# Description: The test substance is suspended in water or dilute hydrochloric acid (pH 4) [Examples 1-21] or in 5% strength aqueous dextrose solution [Examples 22-40]. This suspension is shaken at room temperature for 24 h. After ultracentrifugation at 224 000 g for 30 min, the supernatant is diluted with DMSO and analyzed by HPLC. A two-point calibration plot of the test compound in DMSO is used for quantification.
# Agilent 1100 with DAD (G1315A), quat. pump (G1311A), autosampler CTC HTS PAL, degasser (G1322A) and column thermostat (G1316A); column: Phenomenex Gemini C18, 5 μm, 50 mm×2 mm; temperature: 40° C.; eluent A: water/phosphoric acid pH 2, eluent B: acetonitrile; flow rate: 0.7 ml/min; gradient: 0-0.5 min 85% A, 15% B; ramp 0.5-3 min 10% A, 90% B; 3-3.5 min 10% A, 90% B; ramp 3.5-4 min 85% A, 15% B; 4-5 min 85% A, 15% B.
# Agilent 1100 with DAD (G1315A), quat. pump (G1311A), autosampler CTC HTS PAL, degasser (G1322A) and column thermostat (G1316A); column: VDSoptilab Kromasil 100 C18, 3.5 μm, 60 mm×2.1 mm; temperature: 30° C.; eluent A: water+5 ml of perchloric acid/liter, eluent B: acetonitrile; flow rate: 0.75 ml/min; gradient: 0-0.5 min 98% A, 2% B; ramp 0.5-4.5 min 10% A, 90% B; 4.5-6 min 10% A, 90% B; ramp 6.5-6.7 min 98% A, 2% B; 6.7-7.5 min 98% A, 2% B.
# [6] = aqueous buffer, dilute hydrochloric acid (pH 4)
# [7] = saline or isotonic, 5% strength aqueous dextrose solution
Structure (SMILES),"% test substance after 4 h [F(t = 4 h) × 100/F(t = 0 h)] ([1]; pH 4, 37° C.) [%]","% test substance after 24 h [F(t = 24 h) × 100/F(t = 0 h)] ([1]; pH 4, 37° C.) [%]","% test substance after 4 h [F(t = 4 h) × 100/F(t = 0 h)] ([1]; pH 8, 37° C.) [%]","% test substance after 24 h [F(t = 24 h) × 100/F(t = 0 h)] ([1]; pH 8, 37° C.) [%]",Detectability of the test substance (prodrug) in plasma [2],Heart rate decrease [3] [%],Detectability of the test substance (prodrug) in plasma [4],"solubility at 24 h [5, 6] [mg/mL]","solubility at 24 h [5, 7] [mg/mL]","% test substance after 4 h [F(t = 4 h) × 100/F(t = 0 h)] ([1]; pH 7.4, 37° C.) [%]","% test substance after 24 h [F(t = 24 h) × 100/F(t = 0 h)] ([1]; pH 7.4, 37° C.) [%]"
"N#Cc1c(N)nc(SCc2csc(-c3ccc(Cl)cc3)n2)c(C#N)c1-c1ccc(OCCOP(=O)(O)O)cc1 [Example 1, 2-{4-[2-Amino-6-({[2-(4-chlorophenyl)-1,3-thiazol-4-yl]methyl}thio)-3,5-dicyanopyridin-4-yl]-phenoxy}ethyl dihydrogenphosphate]",100,100,100,100,no longer detectable in plasma even at the first measurement point,16,,,,,
"N#Cc1c(N)nc(SCc2csc(-c3ccc(Cl)cc3)n2)c(C#N)c1-c1ccc(OCCOC(=O)CN)cc1 [Example 5, 2-{4-[2-Amino-6-({[2-(4-chlorophenyl)-1,3-thiazol-4-yl]methyl}thio)-3,5-dicyanopyridin-4-yl]-phenoxy}ethyl glycinate]",100,100,94,68,no longer detectable in plasma even at the first measurement point,21,no longer detectable in plasma even at the first measurement point,,,,
"N#Cc1c(N)nc(SCc2csc(-c3ccc(Cl)cc3)n2)c(C#N)c1-c1ccc(OCCOC(=O)CCC(=O)O)cc1 [Example 19, 4-(2-{4-[2-Amino-6-({[2-(4-chlorophenyl)-1,3-thiazol-4-yl]methyl}thio)-3,5-dicyanopyridin-4-yl]-phenoxy}ethoxy)-4-oxobutanoic acid hydrochloride]",,,,,,18,no longer detectable in plasma even at the first measurement point,0.057,,,
"N#Cc1c(NC(=O)CCN)nc(SCc2csc(-c3ccc(Cl)cc3)n2)c(C#N)c1-c1ccc(OCCOC(=O)CCN)cc1 [Example 26, 2-{4-[2-(beta-Alanylamino)-6-({[2-(4-chlorophenyl)-1,3-thiazol-4-yl]methyl}thio)-3,5-dicyano-pyridin-4-yl]phenoxy}ethyl beta-alaninate dihydrochloride]",100,100,,,,,,,> 0.5,11,2
"CC(C)[C@H](N)C(=O)OCCOc1ccc(-c2c(C#N)c(NC(=O)CCCN(C)C)nc(SCc3csc(-c4ccc(Cl)cc4)n3)c2C#N)cc1 [Example 37, 2-{4-[2-({[2-(4-Chlorophenyl)-1,3-thiazol-4-yl]methyl}thio)-3,5-dicyano-6-{[4-(dimethylamino)-butanoyl]amino}pyridin-4-yl]phenoxy}ethyl L-valinate bistrifluoracetate]",100,100,,,,,,,0.16,97,84
"N#Cc1c(N)nc(SCc2csc(-c3ccc(Cl)cc3)n2)c(C#N)c1-c1ccc(OCCOC(=O)[C@@H](N)CCCNC(=N)N)cc1 [Example 38, 2-{4-[2-Amino-6-({[2-(4-chlorophenyl)-1,3-thiazol-4-yl]methyl}sulfanyl)-3,5-dicyanopyridin-4-yl]-phenoxy}ethyl L-argininate trihydrochloride]",100,100,,,,,,,> 0.5,100,94
"N#Cc1c(N)nc(SCc2csc(-c3ccc(Cl)cc3)n2)c(C#N)c1-c1ccc(OCCOC(=O)[C@H](N)CCCN)cc1 [Example 39, 2-{4-[2-Amino-6-({[2-(4-chlorophenyl)-1,3-thiazol-4-yl]methyl}sulfanyl)-3,5-dicyanopyridin-4-yl]-phenoxy}ethyl D-ornithinate dihydrochloride]",100,100,,,,,,,> 0.5,0,0
"N#Cc1c(N)nc(SCc2csc(-c3ccc(Cl)cc3)n2)c(C#N)c1-c1ccc(OCCOC(=O)[C@@H](N)CN)cc1 [Example 40, 2-{4-[2-Amino-6-({[2-(4-chlorophenyl)-1,3-thiazol-4-yl]methyl}sulfanyl)-3,5-dicyanopyridin-4-yl]-phenoxy}ethyl-3-amino L-alaninate dihydrochloride]",99,94,,,,,,,> 0.5,90,53
"N#Cc1c(N)nc(SCc2csc(-c3ccc(Cl)cc3)n2)c(C#N)c1-c1ccc(OCCO)cc1 [compound (A), 2-amino-6-({[2-(4-chlorophenyl)-1,3-thiazol-4-yl]methyl}thio)-4-[4-(2-hydroxy-ethoxy)phenyl]pyridine-3,5-dicarbonitrile, reference compound]",,,,,,24,,< 0.001,< 0.0001,,
